These results are taken from US7820689B2, “Methods and compositions for preventing or treating cardiovascular disease” (priority 2006, dated 2010).

In test [1] the test system is superoxide production in PMN. Nature of the test: Superoxide production in PMN of apoE-deficient mice, lucigenin chemiluminescence. The class given is in vivo. Particulars: controls 519,000±115,000. The method, then:
ApoE-deficient mice were treated daily with DM 5 mg/kg/day (n=9), 10 mg/kg/day (n=9), 20 mg/kg/day (n=9) or 40 mg/kg/day (n=11) for 10 weeks. Production of superoxide in PMN (1×10^6 cells/mL PBS) (A) was measured by lucigenin-enhanced chemiluminescence. The results are expressed as mean±SD. (P<0.05, control versus 10 mg/kg/day; P<0.001, control versus 20 mg/kg/day and 40 mg/kg/day). Production of superoxide in the thoracic aorta (B) was also measured by lucigenin-enhanced chemiluminescence. The results are expressed as mean±SD. (P<0.05, control versus 10 mg/kg/day and 40 mg/kg/day; P<0.01, control versus 20 mg/kg/day).
(§1) Having established the DM inhibitory effect on macrophage activation and NADPH oxidase, we next examined the functional consequences of which in vivo. […] Sections of left carotid arteries from the mice were stained with DHE and then imaged with a laser scanning confocal microscope.

In test [2] the test system is superoxide production in left carotid arteries. Nature of the test: Superoxide in left common carotid artery of apoE-deficient mice, DHE staining. The class given is in vivo. The method, then: Representative photomicrographs of the […] sections in apoE-deficient mice were treated daily with water only (A) or DM 5 mg/kg/day (B), 10 mg/kg/day (C), 20 mg/kg/day (D) or 40 mg/kg/day (E) for 10 weeks. […] The results are representative of 4 independent experiments with 6-8 independently analyzed mice/group. (bar=50 μm)
as §1

Test [3] concerns NADPH oxidase-deficient mice. Particulars: Zhang et al. 2004; cited from earlier work.
Test [4] concerns MCP-1 release from THP-1 cells after LPS stimulation. Nature of the test: LPS-induced MCP-1 release in THP-1 macrophage culture (ELISA). The following applies: 1 μM pretreatment, LPS alone 9.22±1.17. The class given is cell-based, human. The method, then:
(§2) THP-1 cells were grown in the RPMI-1640 medium containing 10% fetal bovine serum at 37° C. in 5% CO2. The cells were differentiated to macrophages after treatment of the culture with 100 nM PMA for 24 hours. The cell suspension (5×10^5) was added in 0.5 mL into each well of the tissue culture plates. […] LPS was dissolved in sterile water and stored at −70° C. in aliquots. LDL was isolated from human endotoxin-free heparin plasma and was oxidized using CuSO4. In brief, LDL (1 mL, 1 mg/mL) was dialyzed in 500 mL phosphate-buffered saline (PBS, pH 7.4) overnight. Copper sulfate was added to a final concentration of 5 μM, and the LDL was allowed to oxidize at room temperature for 24 hours.
(§3) The supernatants were harvested and the TNF-α, IL-6, and MCP-1 levels were determined by ELISA. Superoxide production in the THP-1 cell culture was measured by lucigenin-enhanced chemiluminescence as described previously (Khadour F H, Panas D, Ferdinandy P, et al. Am J Physiol Heart Circ Physiol, 28:H1108-15 2002). LPS-treated THP-1 cells were treated with PBS containing 1.25 mM lucigenin, and counts were obtained for a 10-minute period in a luminometer (Berthold Technologies, Germany) as relative light units (RLU) emitted. Background counts determined in cell-free preparations were subtracted. […]

Test [5] concerns MCP-1 release from THP-1 cells after oxLDL stimulation. Nature of the test: oxLDL-induced MCP-1 release in THP-1 macrophage culture (ELISA). The class given is cell-based, human. Particulars: 0.01 μM pretreatment, oxLDL alone 2.23±0.34. The method, then:
as §2, §3

The subject of the next test is plasma TNF-α. Put plainly: Plasma TNF-α in LPS-treated FVB mice (ELISA). The class given is in vivo. Particulars: 6 h, LPS only 576.1±43.6. The method, then: (§4) All mice then received 20 mg/kg LPS by intraperitoneal injection. Blood samples were obtained at 6 hours after LPS injection from a catheter placed in the left carotid artery. Blood samples were centrifuged, and the plasma TNF-α levels were measured by ELISA. Lungs were harvested from the animals 6 hours after LPS injection in each group as described above. The tissues were fixed in 4% paraformaldehyde and embedded in paraffin for histopathological examination. The presence of inflammatory cells in lungs was determined by immunofluorescence. The sections were incubated with rat monoclonal antibody against mouse CD45, a leukocyte common antigen (1:50 dilution, Pharmingen). After washing, fluorescein isothiocyanate-conjugated sheep […] immunoglobulin (Amersham Pharmacia Biotech) was applied as a secondary antibody. […] The total CD45-positive cell number was counted in five randomly selected sections under high power field magnification (400×) for each mouse. Oxidative fluorescent microtopography with the oxidative fluorescent dye dihydroethidium (DHE) was used to evaluate the in situ production of superoxide in aorta. Aortas were harvested from the animals at 6 hours after LPS injection in each group as described above. Unfixed frozen ring segments were cut into 30-μm-thick sections and placed on a glass slide. DHE (10 μM) was topically applied to each tissue section and a cover slip was applied. Slides were incubated in a light-protected humidified chamber at 37° C. for 30 minutes. Fluorescence was detected with a laser scanning confocal microscope (Leica Microsystems, Germany) with excitation at 488-nm and detection at 585-nm using a long-pass filter.

Test [6] relates to superoxide production in aorta. Nature of the test: Superoxide in aorta of LPS-treated mice, DHE oxidative fluorescent microtopography. The class given is in vivo. The method, then:
as §4, with “Aortas were harvested from the animals at 6 hours after LPS injection in each group as described above. Unfixed frozen ring segments were cut into 30-μm-thick sections and placed on a glass slide. DHE (10 μM) was topically applied to each tissue section and a cover slip was applied. Slides were incubated in a light-protected humidified chamber at 37° C. for 30 minutes.” left out

In the case of `COc1ccc2c(c1)[C@]13CCCC[C@@H]1[C@H](C2)N(C)CC3` [DM, (+)-3-methoxy-17-methyl-9α,13α,14α-morphinan], the “PMN production of superoxide” value is on record as 460,000±138,000 RLU/15 min in test [1] (5 mg/kg/day 10 weeks, P=NS); 390,000±63,000 RLU/15 min in test [1] (10 mg/kg/day 10 weeks); 328,000±82,000 RLU/15 min in test [1] (20 mg/kg/day 10 weeks); 328,000±82,000 RLU/15 min in test [1] (40 mg/kg/day 10 weeks). The “DHE staining (superoxide), FIG. 14” value in test [2] (DM 5, 10, 20 or 40 mg/kg/day for 10 weeks vs water only) is listed as “staining was much more reduced”. In test [2] (DM 10, 20, and 40 mg/kg/day for 10 weeks), the “DHE fluorescence intensity in sections of left carotid arteries (superoxide)” value was “significantly reduced the increase of fluorescence intensity”. The anti-inflammatory effect entry in test [3] was “anti-inflammatory effect was not observed”.
`C=CCN1CC[C@]23c4c5ccc(O)c4O[C@H]2C(=O)CC[C@@]3(O)[C@H]1C5` [Naloxone, 17-allyl-4,5α-epoxy-3,14-dihydroxymorphinan-6-one]: the MCP-1 in medium worked out at 6.16 ± 0.16 ng/mL in test [4] and 0.95 ± 0.28 ng/mL in test [5]. The “plasma TNF-α level” value in the test on plasma TNF-α (10 mg/kg i.p. before 20 mg/kg LPS) stood at 452.9 ± 55.0 pg/mL; in the test with plasma TNF-α (20 mg/kg i.p. before 20 mg/kg LPS) it was 251.9 ± 59.6 pg/mL; with plasma TNF-α (25 mg/kg i.p. before 20 mg/kg LPS), 288.0 ± 33.9 pg/mL. In addition, the “DHE staining of aorta (superoxide), FIG. 5” value in test [6] (20 mg/kg naloxone pretreatment 1 hour before LPS) is listed as “staining was much more reduced”. The “DHE fluorescence intensity in aortic sections (superoxide)” value in test [6] (10, 20, and 25 mg/kg pretreatment, LPS-treated mice) is reported as “significantly reduced the increase of fluorescence intensity”.
